Data reported in ChEMBL document CHEMBL1201862, “PubChem BioAssay data set” (2004).
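Step 1: Grow cells in 96-well plates. Step 2: Expose to compound for 48 hours at 5 concentrations. Step 3: Interpolate endpoints linearly; if unreached, use highest concentration. GI50: concentration for 50% inhibition of growth.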 Activity calls are given as the source filed them. Rule as the data show it: active = GI50 up to about 1.1 µM and inactive = higher.

Columns and labels:
Assay in all cases: DTP human tumour cell line panel, 48 h
786-0 = system: 786-0
A498 = system: A498
A549 = system: A549
ACHN = system: ACHN
BT-549 = system: BT-549
CAKI-1 = system: CAKI-1
CCRF-CEM = system: CCRF-CEM
COLO 205 = system: COLO 205
DU-145 = system: DU-145
EKVX = system: EKVX
HCC 2998 = system: HCC 2998
HCT-116 = system: HCT-116
HCT-15 = system: HCT-15
HL-60 = system: HL-60
HOP-62 = system: HOP-62
HOP-92 = system: HOP-92
HT-29 = system: HT-29
IGROV-1 = system: IGROV-1
K562 = system: K562
KM12 = system: KM12
LOX IMVI = system: LOX IMVI
M14 = system: M14
MCF7 = system: MCF7
MDA-MB-231 = system: MDA-MB-231
MDA-MB-435 = system: MDA-MB-435
MDA-N = system: MDA-N
MOLT-4 = system: MOLT-4
Malme-3M = system: Malme-3M
NCI-H226 = system: NCI-H226
NCI-H23 = system: NCI-H23
NCI-H460 = system: NCI-H460
NCI-H522 = system: NCI-H522
NCI/ADR-RES = system: NCI/ADR-RES
OVCAR-3 = system: OVCAR-3
OVCAR-4 = system: OVCAR-4
OVCAR-5 = system: OVCAR-5
OVCAR-8 = system: OVCAR-8
PC-3 = system: PC-3
RPMI-8226 = system: RPMI-8226
RXF 393 = system: RXF 393
SF-268 = system: SF-268
SF-295 = system: SF-295
SF-539 = system: SF-539
SK-MEL-28 = system: SK-MEL-28
SK-MEL-2 = system: SK-MEL-2
SK-MEL-5 = system: SK-MEL-5
SK-OV-3 = system: SK-OV-3
SN12C = system: SN12C
SNB-19 = system: SNB-19
SNB-75 = system: SNB-75
SR = system: SR
T47D = system: T47D
TK-10 = system: TK-10
U-251 = system: U-251
UACC-257 = system: UACC-257
UACC-62 = system: UACC-62
UO-31 = system: UO-31

Measured: GI50

CCOP(=O)(OCC)C(Nc1cccc([N+](=O)[O-])c1)c1ccccc1 (configuration not stated)
active: IGROV-1 108 nM
inactive: 786-0 > 100 µM | A498 > 100 µM | A549 57.1 µM | ACHN > 100 µM | BT-549 > 100 µM | CAKI-1 > 100 µM | CCRF-CEM 68.1 µM | COLO 205 34.6 µM | DU-145 > 100 µM | EKVX 62.2 µM | HCC 2998 > 100 µM | HCT-116 65 µM | HL-60 39.9 µM | HOP-62 > 100 µM | HOP-92 62.4 µM | HT-29 75 µM | K562 38.2 µM | KM12 > 100 µM | LOX IMVI 73.3 µM | M14 > 100 µM | MCF7 > 100 µM | MDA-MB-231 58.9 µM | MDA-MB-435 > 100 µM | MDA-N > 100 µM | MOLT-4 39.4 µM | Malme-3M 40.1 µM | NCI-H226 > 100 µM | NCI-H23 > 100 µM | NCI-H460 80 µM | NCI-H522 90.2 µM | NCI/ADR-RES 97.1 µM | OVCAR-3 > 100 µM | OVCAR-4 > 100 µM | OVCAR-5 > 100 µM | OVCAR-8 > 10 µM | PC-3 38.6 µM | RPMI-8226 76.7 µM | RXF 393 88.3 µM | SF-268 > 100 µM | SF-295 > 100 µM | SF-539 > 100 µM | SK-MEL-28 > 100 µM | SK-MEL-2 82.4 µM | SK-MEL-5 64.3 µM | SK-OV-3 > 100 µM | SN12C > 100 µM | SNB-19 > 100 µM | SNB-75 71.9 µM | SR > 100 µM | T47D 18.8 µM | TK-10 > 100 µM | U-251 > 100 µM | UACC-257 72.1 µM | UACC-62 58.2 µM | UO-31 48.8 µM
71.6 µM: HCT-15
